Assay results from ChEMBL document CHEMBL1142255, “Potent pyrrolidine- and piperidine-based BACE-1 inhibitors” (Bioorg Med Chem Lett, 2008).

Tests used:
Beta-secretase 1 [1] = molecular target: T1, Beta-secretase 1 (Homo sapiens, UniProt P56817)
Beta-secretase 1 [2] = molecular target: T1, Beta-secretase 1; remark: listed apart in the source

T1 sequence (P56817 whole entry): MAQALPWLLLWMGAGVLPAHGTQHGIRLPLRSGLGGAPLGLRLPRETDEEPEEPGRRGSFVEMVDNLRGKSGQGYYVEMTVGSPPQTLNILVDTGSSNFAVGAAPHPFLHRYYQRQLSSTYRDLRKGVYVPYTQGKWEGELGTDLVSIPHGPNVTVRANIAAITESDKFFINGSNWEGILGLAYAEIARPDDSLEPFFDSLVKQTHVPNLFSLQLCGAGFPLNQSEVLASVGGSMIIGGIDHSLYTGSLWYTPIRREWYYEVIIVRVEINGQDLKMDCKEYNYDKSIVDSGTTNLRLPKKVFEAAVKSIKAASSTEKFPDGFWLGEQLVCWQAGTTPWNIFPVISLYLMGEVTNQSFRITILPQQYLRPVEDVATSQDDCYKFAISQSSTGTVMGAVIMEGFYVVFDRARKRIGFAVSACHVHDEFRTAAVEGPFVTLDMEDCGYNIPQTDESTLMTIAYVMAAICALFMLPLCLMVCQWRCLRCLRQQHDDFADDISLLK

Row | IC50 (Beta-secretase 1 [1]) [nM] | IC50 (Beta-secretase 1 [2]) [nM] | Compound
1 | 780 | 187 | CCCN(CCC)C(=O)c1cc(C)cc(C(=O)N[C@@H](Cc2cc(F)cc(F)c2)[C@H](O)[C@H]2C[C@@H](OC)CN2)c1
2 | 482 | 26 | CCCN(CCC)C(=O)c1cc(C)cc(C(=O)N[C@@H](Cc2cc(F)cc(F)c2)[C@H](O)[C@H]2C[C@@H](OCCN(C)C)CCN2)c1
3 | 3000 | 2000 | CCCN(CCC)C(=O)c1cc(C)cc(C(=O)N[C@@H](Cc2cc(F)cc(F)c2)[C@H](O)[C@H]2C[C@@H](OC(C)=O)CCN2)c1
4 | 4200 | 610 | CCCN(CCC)C(=O)c1cc(C)cc(C(=O)N[C@@H](Cc2cc(F)cc(F)c2)[C@H](O)[C@H]2C[C@@H](C3CCCCC3)CCN2)c1
5 | 1200 | 70 | CCC[C@H]1CCN[C@@H]([C@@H](O)[C@H](Cc2cc(F)cc(F)c2)NC(=O)c2cc(C)cc(C(=O)N(CCC)CCC)c2)C1
6 | 160 | 7 | CCCCO[C@H]1CCN[C@@H]([C@@H](O)[C@H](Cc2cc(F)cc(F)c2)NC(=O)c2cc(C)cc(C(=O)N(CCC)CCC)c2)C1
7 | 858 | 120 | CCCN(CCC)C(=O)c1cc(C)cc(C(=O)N[C@@H](Cc2cc(F)cc(F)c2)[C@H](O)[C@H]2C[C@@H](OC(C)C)CCN2)c1
8 | 567 | 12 | CCCN(CCC)C(=O)c1cc(C)cc(C(=O)N[C@@H](Cc2cc(F)cc(F)c2)[C@H](O)[C@H]2C[C@@H](OCC3CCCCC3)CCN2)c1
9 | 1450 | 89 | CCCN(CCC)C(=O)c1cc(C)cc(C(=O)N[C@@H](Cc2cc(F)cc(F)c2)[C@H](O)[C@H]2C[C@@H](O)CN2)c1
10 | 2000 | 440 | CCCN(CCC)C(=O)c1cc(C)cc(C(=O)N[C@@H](Cc2cc(F)cc(F)c2)[C@H](O)[C@H]2C[C@@H](Cc3ccc(OC)cc3)CCN2)c1

Further lines, the compound ahead of its results:

Row | Compound | IC50 (Beta-secretase 1 [1]) [nM] | IC50 (Beta-secretase 1 [2]) [nM]
11 | CCCN(CCC)C(=O)c1cc(C)cc(C(=O)N[C@@H](Cc2cc(F)cc(F)c2)[C@H](O)[C@H]2CCCN2)c1 | 330 | 65
12 | CCCN(CCC)C(=O)c1cc(C)cc(C(=O)N[C@@H](Cc2cc(F)cc(F)c2)[C@H](O)[C@H]2C[C@@H](CCc3ccccc3)CCN2)c1 | 1850 | 191
13 | CCCN(CCC)C(=O)c1cc(C)cc(C(=O)N[C@@H](Cc2cc(F)cc(F)c2)[C@H](O)[C@H]2C[C@@H](CC3CCCCC3)CCN2)c1 | 2000 | 630
14 | CCCN(CCC)C(=O)c1cc(C)cc(C(=O)N[C@@H](Cc2cc(F)cc(F)c2)[C@H](O)[C@H]2C[C@@H](OCCOC)CCN2)c1 | 110 | 4
15 | CCCN(CCC)C(=O)c1cc(C)cc(C(=O)N[C@@H](Cc2cc(F)cc(F)c2)[C@H](O)[C@H]2C[C@@H](Cc3ccccc3OC)CCN2)c1 |  | 1350
16 | CCCN(CCC)C(=O)c1cc(C)cc(C(=O)N[C@@H](Cc2cc(F)cc(F)c2)[C@H](O)[C@H]2C[C@@H](Cc3cccc(OC)c3)CCN2)c1 |  | 330
17 | CCCN(CCC)C(=O)c1cc(C)cc(C(=O)N[C@@H](Cc2cc(F)cc(F)c2)[C@H](O)[C@H]2CCN2)c1 | 2800 | 770
18 | CCCN(CCC)C(=O)c1cc(C)cc(C(=O)N[C@@H](Cc2cc(F)cc(F)c2)[C@H](O)[C@H]2C[C@@H](OCC3CC3)CCN2)c1 | 121 | 6
